Source: patent publication US20050037983A1, “Compositions and methods for the treatment of depression and other affective disorders” (priority 2003, published 2005)
Read-outs that look alike come from different tables or passages of the source.

How the values were obtained:
[1] = tested on: subject with major depression; assay: Case reports: add-on anti-inflammatory in subjects with major depression, rated on 17 item Hamilton rating scale for depression (HAMD); assay type: in vivo, human; details: person
Protocol: A subject with a 4-5 month history of depression was used in this example. The subject's complaints included low mood, anhedonia, anxiety, poor concentration, significant initial insomnia, mild anorexia and weight loss of approximately 2 kilos. Symptoms were precipitated by problems both in the work and home environment. A diagnosis of major depression was made.
Over three weeks this was increased to 300 mg daily.
Rofecoxib 50 mg daily was added to the venlafaxine.
A subject with a long history of recurring depression was used in this example. The current episode was present for 3 months when initially seen. They were low in mood, tearful, irritable, very anxious and had significant sleep disturbance in the form of initial and delayed insomnia. There was no clear precipitant for their symptoms.
They had been taking venlafaxine for approximately 1 year at a maximum tolerated dose of 225 mg daily.

[2] = tested on: cyclooxygenase; details: cited from earlier work
[3] = in vivo; cited from earlier work
[4] = tested on: IL-6; details: in vitro; cited from earlier work
[5] = tested on: subjects with DSM-IV major depression; assay: Human study: 36 subjects with DSM-IV major depression, three randomised groups, response rates; assay type: in vivo; details: Hamilton score greater than 20 at entry; Vioxx 30 mg/day; compared among three groups incl. placebo
Protocol: Thirty six (36) subjects with DSM-IV major depression and Hamilton score greater than 20 were recruited. Subjects were randomly allocated into each of three groups • 1. SSRI plus Vioxx 30 mg/day • 2. Vioxx, 30 mg/day • 3. Placebo All subjects have base line Il-6, IL-1 and cortisol levels assayed using specific assays. Biochemical assays are repeated at the end of weeks 1, 3 and 6. […] Response to treatment was associated with a drop in cortisol levels and pro-inflammatory cytokines.

[6] = tested on: subjects treated with IFN-α; details: cited from earlier work; for IL-6 level compared with placebo: as early as four hours after a single dose
[7] = tested on: neutrophils; details: cited from earlier work
[8] = subjects treated with interferon alpha

CC(C)Cc1ccc(C(C)C(=O)O)cc1 (stereo not drawn) [Ibruprofen]
HAMD ([1]; baseline HAMD 20, 400 mg three times daily added to venlafaxine 225 mg daily, day 14): 8 | day of reported symptomatic improvement ([1]; 400 mg three times daily added to venlafaxine): ≤ 8 days

C[C@@H](C(=O)O)c1ccc(-c2ccccc2)c(F)c1 [R-flurbiprofen]
inhibition of cyclooxygenase activity [2]: does not inhibit cyclooxygenase activity | gastrointestinal mucosal damage [3]: does not cause gastrointestinal mucosal damage | potency of R-enantiomer versus S-enantiomer in down-regulating IL-6 levels [4]: significantly more potent

CS(=O)(=O)c1ccc(C2=C(c3ccccc3)C(=O)OC2)cc1 [Rofecoxib]
HAMD score ([1]; baseline HAMD 22, Rofecoxib 50 mg daily added to venlafaxine 300 mg daily, after 1 week): 11 | time to improvement after commencing treatment ([1]; Rofecoxib 50 mg daily added to venlafaxine, subject's description): ≤ 5 days | clinical state at review ([1]; Rofecoxib added to venlafaxine, reviewed 2 weeks later): sustained | response rates [5]: greater than that observed for placebo

CN(C)CCCC1(c2ccc(F)cc2)OCc2cc(C#N)ccc21 (stereo not drawn) [citalopram]
clinical response ([1]; citalopram 20 mg daily alone, after 5 weeks): no response

CC(C)Cc1ccc([C@@H](C)C(=O)O)cc1 [ibuprofen, R-ibuprofen]
potency of R-enantiomer versus S-enantiomer in down-regulating IL-6 levels [4]: significantly more potent

C[C@@H](C(=O)O)c1cccc(C(=O)c2ccccc2)c1 [ketoprofen, R-ketoprofen]
potency of R-enantiomer versus S-enantiomer in down-regulating IL-6 levels [4]: significantly more potent

Fc1ccc([C@@H]2CCNC[C@H]2COc2ccc3c(c2)OCO3)cc1 [paroxetine]
impact in preventing depression [6, 8]: modest impact

O=C(O)c1cc(/N=N/c2ccc(S(=O)(=O)Nc3ccccn3)cc2)ccc1O [sulfasalazine]
induction of apoptosis in neutrophils [7]: capable of inducing apoptosis

COc1ccc(C(CN(C)C)C2(O)CCCCC2)cc1 (stereo not drawn) [venlafaxine]
clinical improvement ([1]; venlafaxine 300 mg daily alone, after 4 weeks on this dose): No clinical improvement

IFN-α
IL-6 level compared with placebo [6]: significantly increased | IL-6 level compared with placebo ([6]; listed as IFN-alpha): significantly increases | subjects in whom major depression is reported [6, 8]: up to 40%
